From US20220298141A1, “ENZYME INHIBITORS” (KALVISTA PHARMACEUTICALS LIMITED, priority 2019, published 2022)

What was measured:
Human FXIa = target: T1, Human FXIa (Homo sapiens, UniProt P03951); experiment: Determination of FXIa inhibitory activity in vitro (fluorogenic substrate Z-Gly-Pro-Arg-AFC); assay type: biochemical; settings: Selectivity, Human FXIa (Enzyme Research Laboratories), 25° C.
T1 construct: purchased Enzyme Research Laboratories

Human Factor XIIa = target: T2, Human Factor XIIa (Homo sapiens, UniProt P00748); experiment: Determination of Factor XIIa inhibitory activity in vitro (fluorogenic substrate H-DPro-Phe-Arg-AFC); assay type: biochemical; settings: Human Factor XIIa (Enzyme Research Laboratories), 25° C., read-out: Human FXIIa IC50
T2 construct: purchased Enzyme Research Laboratories
T2 sequence (P00748 373-615 limits assumed): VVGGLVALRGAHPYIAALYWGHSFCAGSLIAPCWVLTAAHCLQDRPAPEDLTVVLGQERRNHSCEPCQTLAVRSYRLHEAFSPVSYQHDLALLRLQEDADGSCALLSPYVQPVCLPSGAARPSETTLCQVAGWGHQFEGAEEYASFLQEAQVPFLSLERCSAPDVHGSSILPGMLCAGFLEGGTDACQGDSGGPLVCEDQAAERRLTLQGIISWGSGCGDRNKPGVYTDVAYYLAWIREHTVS
T2 sequence (P00748 20-372 partner limits assumed): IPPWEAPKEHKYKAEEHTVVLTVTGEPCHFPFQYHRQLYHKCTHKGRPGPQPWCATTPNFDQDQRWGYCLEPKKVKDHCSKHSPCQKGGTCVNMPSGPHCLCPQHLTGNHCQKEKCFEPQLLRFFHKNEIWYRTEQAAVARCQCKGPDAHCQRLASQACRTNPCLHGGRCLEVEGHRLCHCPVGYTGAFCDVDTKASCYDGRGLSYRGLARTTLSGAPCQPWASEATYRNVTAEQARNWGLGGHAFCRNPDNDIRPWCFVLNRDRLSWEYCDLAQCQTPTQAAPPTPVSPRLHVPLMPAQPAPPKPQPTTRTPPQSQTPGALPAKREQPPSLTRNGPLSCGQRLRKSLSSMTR
Experimental: Determination of the % Inhibition for FXIIa
Factor XIIa inhibitory activity in vitro was determined using standard published methods (see e.g. Shori et al., Biochem. Pharmacol., 1992, 43, 1209; Baeriswyl et al., ACS Chem. Biol., 2015, 10 (8) 1861; Bouckaert et al., European Journal of Medicinal Chemistry 110 (2016) 181). Human Factor XIIa (Enzyme Research Laboratories) was incubated at 25° C. with the fluorogenic substrate H-DPro-Phe-Arg-AFC and various concentrations of the test compound. Residual enzyme activity (initial rate of reaction) was determined by measuring the […] and the IC50 value for the test compound was determined.

T1 sequence (P03951 388-625 limits assumed): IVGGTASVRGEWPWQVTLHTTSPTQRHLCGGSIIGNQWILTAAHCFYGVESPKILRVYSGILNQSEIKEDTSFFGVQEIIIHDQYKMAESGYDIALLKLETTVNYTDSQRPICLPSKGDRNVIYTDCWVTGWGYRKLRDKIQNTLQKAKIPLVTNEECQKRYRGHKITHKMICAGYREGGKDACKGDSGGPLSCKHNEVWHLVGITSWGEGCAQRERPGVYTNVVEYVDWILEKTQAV
T1 sequence (P03951 19-387 partner limits assumed): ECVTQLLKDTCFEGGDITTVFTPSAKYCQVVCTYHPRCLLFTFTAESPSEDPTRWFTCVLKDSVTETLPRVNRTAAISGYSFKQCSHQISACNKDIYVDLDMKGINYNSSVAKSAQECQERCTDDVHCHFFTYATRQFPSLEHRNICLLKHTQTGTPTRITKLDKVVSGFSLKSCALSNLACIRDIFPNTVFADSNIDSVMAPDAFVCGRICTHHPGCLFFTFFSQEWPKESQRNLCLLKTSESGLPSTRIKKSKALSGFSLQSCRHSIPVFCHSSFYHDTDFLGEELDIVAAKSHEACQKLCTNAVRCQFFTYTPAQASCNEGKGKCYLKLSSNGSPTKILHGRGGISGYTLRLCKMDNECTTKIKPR

Row | Compound | IC50 (Human FXIa) [µM] | IC50 (Human Factor XIIa) [µM]
1 | Nc1nccc2cc(CNC(=O)c3cc(Cl)cnc3NCc3ccccn3)ccc12 [Example 1.43] | > 40 | 3 to 10
2 | Nc1nccc2cc(CNC(=O)c3cc(Cl)cnc3Nc3ccc(N4CCOCC4)cc3)ccc12 [Example 1.44] | > 40 | 10 to 40
3 | Nc1nccc2cc(CNC(=O)c3cc(Cl)cnc3NCC(=O)N3CCOCC3)ccc12 [Example 1.45] | > 40 | 10 to 40
4 | Nc1nccc2cc(CNC(=O)c3cc(Cl)cnc3NCC(=O)NC3CCCC3)ccc12 [Example 1.46] | > 40 | 10 to 40
5 | CN1C(C)(C)CC(Nc2ncc(Cl)cc2C(=O)NCc2ccc3c(N)nccc3c2)CC1(C)C [Example 1.47] | > 40 | 1 to 3
6 | CN1CCN(c2cc(CNc3ncc(Cl)cc3C(=O)NCc3ccc4c(N)nccc4c3)ccn2)CC1 [Example 1.48] | > 40 | 1 to 3
7 | CC(C)N1CCC(CNc2ncc(Cl)cc2C(=O)NCc2ccc3c(N)nccc3c2)CC1 [Example 1.49] | > 40 | 0.3 to 1
8 | Nc1nccc2cc(CNC(=O)c3cc(Cl)cnc3NCC3CCN(C4CC4)CC3)ccc12 [Example 1.50, N-((1-aminoisoquinolin-6-yl)methyl)-5-chloro-2-(((1-cyclopropylpiperidin-4-yl)methyl)amino)nicotinamide] | > 40 | 0.3 to 1
9 | CCN1CCC(CNc2ncc(Cl)cc2C(=O)NCc2ccc3c(N)nccc3c2)CC1 [Example 1.51, N-((1-aminoisoquinolin-6-yl)methyl)-5-chloro-2-(((1-ethylpiperidin-4-yl)methyl)amino)nicotinamide] | > 40 | < 0.3
10 | Nc1nccc2cc(CNC(=O)c3cc(Cl)cnc3NCC34CCN(CC3)CC4)ccc12 [Example 1.52] | > 40 | 0.3 to 1
11 | Nc1nccc2cc(CNC(=O)c3cc(Cl)cnc3NCC3CCN(C4CCCC4)CC3)ccc12 [Example 1.53] | > 40 | 0.3 to 1
12 | COCCN1CCC(CNc2ncc(Cl)cc2C(=O)NCc2ccc3c(N)nccc3c2)CC1 [Example 1.54, N-((1-aminoisoquinolin-6-yl)methyl)-5-chloro-2-(((1-(2-methoxyethyl)piperidin-4-yl)methyl)amino)nicotinamide] | > 40 | 0.3 to 1
13 | CC(C)CN1CCC(CNc2ncc(Cl)cc2C(=O)NCc2ccc3c(N)nccc3c2)CC1 [Example 1.55] | > 40 | 0.3 to 1
14 | Nc1nccc2cc(CNC(=O)c3cc(Cl)cnc3NCC3CCN(CC4CC4)CC3)ccc12 [Example 1.56] | > 40 | 0.3 to 1
15 | Nc1nccc2cc(CNC(=O)c3cc(Cl)cnc3NCC3CCN(CC(F)(F)F)CC3)ccc12 [Example 1.57] | > 40 | 3 to 10
16 | Nc1nccc2cc(CNC(=O)c3cc(Cl)cnc3NCC3CCN(C4CCOCC4)CC3)ccc12 [Example 1.58] | > 40 | 1 to 3
17 | Nc1nccc2cc(CNC(=O)c3cc(Cl)cnc3NCC3CCn4ccnc4C3)ccc12 (centres unmarked) [Example 1.59, N-((1-aminoisoquinolin-6-yl)methyl)-5-chloro-2-(((5,6,7,8-tetrahydroimidazo[1,2-a]pyridin-7-yl)methyl)amino)nicotinamide] | > 40 | 0.3 to 1
18 | CN1CCC(Nc2ncc(Cl)cc2C(=O)NCc2ccc3c(N)nccc3c2)CC1 [Example 1.60] | > 40 | 1 to 3
19 | CC(=O)N1CCC(CNc2ncc(Cl)cc2C(=O)NCc2ccc3c(N)nccc3c2)CC1 [Example 1.61] | > 40 | 3 to 10
20 | CS(=O)(=O)N1CCC(CNc2ncc(Cl)cc2C(=O)NCc2ccc3c(N)nccc3c2)CC1 [Example 1.62] | > 40 | 3 to 10
21 | Nc1nccc2cc(CNC(=O)c3cc(Cl)cnc3NCC3CCN(Cc4cccnc4)CC3)ccc12 [Example 1.63, N-[(1-amino-6-isoquinolyl)methyl]-5-chloro-2-[[1-(3-pyridylmethyl)-4-piperidyl]methylamino]pyridine-3-carboxamide] | > 40 | 0.3 to 1
22 | CC(C)N1CCCC(CNc2ncc(Cl)cc2C(=O)NCc2ccc3c(N)nccc3c2)C1 (centres unmarked) [Example 1.64, N-[(1-amino-6-isoquinolyl)methyl]5-chloro-2-[(1-isopropyl-3-piperidyl)methylamino]pyridine-3-carboxamide] | > 40 | 0.3 to 1
23 | Nc1nccc2cc(CNC(=O)c3cc(Cl)cnc3NCC3CCN(Cc4cscn4)CC3)ccc12 [Example 1.65] | > 40 | 3 to 10

Row | Compound | IC50 (Human FXIa) [µM] | IC50 (Human Factor XIIa) [µM]
24 | Nc1nccc2cc(CNC(=O)c3cc(Cl)cnc3NCC3CCN(Cc4nccs4)CC3)ccc12 [Example 1.66] | > 40 | 3 to 10
25 | Cn1nccc1CN1CCC(CNc2ncc(Cl)cc2C(=O)NCc2ccc3c(N)nccc3c2)CC1 [Example 1.67] | > 40 | 1 to 3
26 | Cn1cc(CN2CCC(CNc3ncc(Cl)cc3C(=O)NCc3ccc4c(N)nccc4c3)CC2)cn1 [Example 1.68] | > 40 | 0.3 to 1
27 | CC(C)N1CCCC(C(=O)Nc2ncc(Cl)cc2C(=O)NCc2ccc3c(N)nccc3c2)C1 (centres unmarked) [Example 1.69] | > 40 | 3 to 10
28 | Nc1nccc2cc(CNC(=O)c3cc(Cl)cnc3NC[C@@H]3CCC(=O)N3)ccc12 [Example 1.70] | > 40 | 10 to 40
29 | CC(Nc1ncc(Cl)cc1C(=O)NCc1ccc2c(N)nccc2c1)C1CCN(C)CC1 (centres unmarked) [Example 1.71] | > 40 | 0.3 to 1
30 | Nc1nccc2cc(CNC(=O)c3cc(Cl)cnc3NC[C@H]3CCC(=O)N3)ccc12 [Example 1.72, R—N-[(1-aminoisoquinoline-6-yl)methyl)-5-chloro-2-(((5-oxopyrrolidin-2-yl)methyl)amino)nicotinamide] | 3.16 | 10 to 40
31 | CN1CCC(CNc2ncccc2C(=O)NCc2ccc3c(N)nccc3c2)CC1 [Example 4.01, N-((1-aminoisoquinolin-6-yl)methyl)-2-(((1-methylpiperidin-4-yl)methyl)amino)nicotinamide] | > 40 | 1 to 3
32 | Cc1cnc(NCC2CCN(C)CC2)c(C(=O)NCc2ccc3c(N)nccc3c2)c1 [Example 4.02] | > 40 | 0.3 to 1
33 | CN(C)CCCOc1cccc(CN(C)c2ncc(Cl)cc2C(=O)NCc2ccc3c(N)nccc3c2)c1 [Example 28.03, N-((1-aminoisoquinolin-6-yl)methyl)-5-chloro-2-((3-(3-(dimethylamino)propoxy)benzyl)(methyl)amino)nicotinamide] | – | 3 to 10
34 | CN(c1ncc(Cl)cc1C(=O)NCc1ccc2c(N)nccc2c1)C1CCOCC1 [Example 28.04, N-((1-aminoisoquinolin-6-yl)methyl)-5-chloro-2-(methyl(tetra hydro-2H-pyran-4-yl)amino)nicotinamide] | – | 10 to 40
35 | CN(c1ccccc1)c1ncc(Cl)cc1C(=O)NCc1ccc2c(N)nccc2c1 [Example 28.05, N-((1-aminoisoquinolin-6-yl)methyl)-5-chloro-2-(methyl(phenyl)amino)nicotinamide] | – | 10 to 40
36 | CN(c1cccc(Cl)c1)c1ncc(Cl)cc1C(=O)NCc1ccc2c(N)nccc2c1 [Example 28.06] | – | 10 to 40
37 | Nc1nccc2cc(CNC(=O)c3cncc(-c4ccccc4)c3)ccc12 [Example 29.01] | – | 10 to 40
38 | Nc1nccc2cc(CNC(=O)c3cncc(-c4ccnn4Cc4ccccc4)c3)ccc12 [Example 29.03, N-((1-aminoisoquinolin-6-yl)methyl)-5-(1-benzyl-1H-pyrazol-5-yl)nicotinamide] | – | 3 to 10
39 | Nc1nccc2cc(CNC(=O)c3cncc(CN4CCNCC4)c3)ccc12 [Example 29.04] | – | 10 to 40
40 | Nc1nccc2cc(CNC(=O)c3cccc(CN4CCN(CC5CCCC5)CC4)c3)ccc12 [Example 29.09] | – | 3 to 10
41 | CN1CCN(Cc2cc(Cl)cc(C(=O)NCc3ccc4c(N)nccc4c3)c2)CC1 [Example 29.10] | – | 3 to 10
42 | Nc1nccc2cc(CNC(=O)c3cc(Cl)cc(CN4CCN(CC5CCCC5)CC4)c3)ccc12 [Example 29.11, N-((1-aminoisoquinolin-6-yl)methyl)-3-chloro-5-((4-(cyclopentylmethyl)piperazin-1-yl)methyl)benzamide] | – | 3 to 10
43 | C[C@@H]1CCC[C@H](C)N1CC(=O)Nc1cc(Cl)cc(C(=O)NCc2ccc3c(N)nccc3c2)c1 [Example 32.05] | – | 3 to 10
44 | COc1ccc(-n2cc(C(F)F)nn2)c(CNC(=O)c2nccnc2NCC2CCN(C)CC2)c1F [Example 33.22] | – | 10 to 40
45 | Cc1cc(CN)cc(C)c1CNC(=O)c1nccnc1NCC1CCN(C)CC1 [Example 33.23] | – | 10 to 40
